According to patent publication US10919891B2, “Heterocyclic compound” (TAKEDA PHARMACEUTICAL COMPANY LIMITED, priority 2017, dated 2021):

What follows are compounds tested against T1, human CaSR (Homo sapiens, UniProt P41180) (assay: Human CaSR Antagonist Activity (CHO cells, NFAT-Luciferase reporter)). Conditions: 3.3 μm test compound; CaCl2 final 1.3 mM; 100% = reference carboxamide at 10 μM.
T1 construct: expressed in transfected cells; host or cells: CHO cells
T1 sequence (P41180 20-1078): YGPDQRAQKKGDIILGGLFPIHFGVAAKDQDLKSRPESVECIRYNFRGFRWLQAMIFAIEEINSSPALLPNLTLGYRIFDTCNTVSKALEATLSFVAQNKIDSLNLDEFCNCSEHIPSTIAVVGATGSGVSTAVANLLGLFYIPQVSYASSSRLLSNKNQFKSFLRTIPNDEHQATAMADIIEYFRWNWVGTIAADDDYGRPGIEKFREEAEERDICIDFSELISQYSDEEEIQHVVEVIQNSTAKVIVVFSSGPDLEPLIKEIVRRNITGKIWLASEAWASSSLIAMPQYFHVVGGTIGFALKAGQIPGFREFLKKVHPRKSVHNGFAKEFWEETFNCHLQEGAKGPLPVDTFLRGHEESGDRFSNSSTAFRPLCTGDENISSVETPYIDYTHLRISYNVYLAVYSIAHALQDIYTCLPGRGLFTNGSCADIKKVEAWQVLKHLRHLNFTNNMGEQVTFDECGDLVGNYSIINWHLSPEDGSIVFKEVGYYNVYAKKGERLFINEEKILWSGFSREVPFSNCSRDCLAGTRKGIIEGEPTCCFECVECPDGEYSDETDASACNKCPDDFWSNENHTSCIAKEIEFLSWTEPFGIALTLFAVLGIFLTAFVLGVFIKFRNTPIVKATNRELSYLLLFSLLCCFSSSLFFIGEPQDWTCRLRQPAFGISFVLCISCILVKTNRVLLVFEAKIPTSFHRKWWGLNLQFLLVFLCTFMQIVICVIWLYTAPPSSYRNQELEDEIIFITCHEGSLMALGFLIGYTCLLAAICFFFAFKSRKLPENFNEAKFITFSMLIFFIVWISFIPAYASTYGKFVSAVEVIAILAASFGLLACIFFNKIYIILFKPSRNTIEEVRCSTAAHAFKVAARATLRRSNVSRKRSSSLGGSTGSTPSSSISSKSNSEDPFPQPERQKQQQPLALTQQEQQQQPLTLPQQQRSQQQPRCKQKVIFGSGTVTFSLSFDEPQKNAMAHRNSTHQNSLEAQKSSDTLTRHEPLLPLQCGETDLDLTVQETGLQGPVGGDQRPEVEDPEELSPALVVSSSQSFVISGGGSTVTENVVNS
Type: cell-based
Procedure: CaSR antagonist activity measurement was performed using Bright-Glo Luciferase assay system (Promega Corporation). CHO cells in which human CaSR and NFAT-Luciferase reporter gene were forcibly expressed were suspended in MEM alpha (Wako Pure Chemical Industries, Ltd.) containing 10% dialyzed serum (HyClone). The cells in suspension was seeded in 384-well white plate (Corning) at 10,000/20 μL/well, and cultured in an incubator of 37° C., 5% CO2 for one day. A diluent of Test compound was prepared with assay buffer (MEM alpha containing 10 mM HEPES (Life Technologies) and 10% dialysis serum). The diluent was added to the plate at 5 μL/well and allowed to stand at 37° C. for 10 minutes. Further, a diluent of 7.8 mM CaCl2 prepared with assay buffer (final concentration 1.3 mM) was added at 5 μl/well and allowed to stand in an incubator of 37° C., 5% CO2 for 2 hours. Bright-Glo reagents (Promega Corporation) were added at 10 μL/well, and the obtained mixture was stirred for 5 minutes, and then luminescence intensity was measured using Multi-label reader Envision (PerkinElmer, Inc.). The activity (%) of the test compound was calculated with the definitions in which the luminescence intensity when DMSO is added in place of the test compound is defined as 0% inhibition; and the luminescence intensity when (5R)—N-(1-ethyl-1-(4-ethylphenyl)propyl)-2,7,7-trimethyl-5-phenyl-4,5,6,7-tetrahydropyrazolo[1,5-a]Pyrimidine-3-carboxamide at final concentration of 10 μM is added is defined as 100% inhibition.
With `CC1(C)C[C@H](c2ccccc2)Nc2c(C(=O)N3CC4CC4(c4cccc(Cl)c4)C3)cnn21` (stereo partly drawn) [Example 17, (1-(3-Chlorophenyl)-3-azabicyclo[3.1.0]hex-3-yl)((5R)-7,7-dimethyl-5-phenyl-4,5,6,7-tetrahydropyrazolo[1,5-a]pyrimidin-3-yl)methanone] the “Inhibition rate (%) at 3.3 μm” value was 95%. With `COc1cccc(C23CC2CN(C(=O)c2cnn4c2N[C@@H](c2ccccc2)CC4(C)C)C3)c1` (stereo partly drawn) [Example 20, ((5R)-7,7-Dimethyl-5-phenyl-4,5,6,7-tetrahydropyrazolo[1,5-a]pyrimidin-3-yl)(1-(3-methoxyphenyl)-3-azabicyclo[3.1.0]hex-3-yl)methanone] the “Inhibition rate (%) at 3.3 μm” value was 93%. In the case of `Cc1cccc(C23CC2CN(C(=O)c2cnn4c2N[C@@H](c2ccccc2)CC4(C)C)C3)c1` (stereo partly drawn) [Example 23, ((5R)-7,7-Dimethyl-5-phenyl-4,5,6,7-tetrahydropyrazolo[1,5-a]pyrimidin-3-yl)(1-(3-methylphenyl)-3-azabicyclo[3.1.0]hex-3-yl)methanone], the “Inhibition rate (%) at 3.3 μm” value is reported as 92%. `CC1(C)C[C@H](c2ccccc2)Nc2c(C(=O)N3CC4CC4(c4ccc(C(F)(F)F)cc4F)C3)cnn21` (stereo partly drawn) [Example 28, ((5R)-7,7-Dimethyl-5-phenyl-4,5,6,7-tetrahydropyrazolo[1,5-a]pyrimidin-3-yl)(1-(2-fluoro-4-(trifluoromethyl)phenyl)-3-azabicyclo[3.1.0]hex-3-yl)methanone] was tested, and the “Inhibition rate (%) at 3.3 μm” value was 101%. In the case of `CC1(C)C[C@H](c2ccccc2)Nc2c(C(=O)N3CC4CC4(c4ccc(C(F)(F)F)cc4F)C3)cnn21` (stereo partly drawn) [Example 29, ((5R)-7,7-Dimethyl-5-phenyl-4,5,6,7-tetrahydropyrazolo[1,5-a]pyrimidin-3-yl)(1-(2-fluoro-4-(trifluoromethyl)phenyl)-3-azabicyclo[3.1.0]hex-3-yl)methanone], the “Inhibition rate (%) at 3.3 μm” value is reported as 92%.

Same assay, conditions: CHO, 2 h, 3.3 μm test compound; CaCl2 final 1.3 mM; 100% = reference carboxamide at 10 μM; read-out: Inhibition rate (%) at 3.3 μm
`CC1(C)C[C@H](c2ccccc2)Nc2c(C(=O)N3C[C@H]4C[C@@]4(c4ccc(Cl)c(Cl)c4)C3)cnn21` [Example 2, ((1R,5S)-1-(3,4-Dichlorophenyl)-3-azabicyclo[3.1.0]hex-3-yl)((5R)-7,7-dimethyl-5-phenyl-4,5,6,7-tetrahydropyrazolo[1,5-a]pyrimidin-3-yl)methanone] gave an inhibition at 3.3 µM of 92%. `CC1(C)C[C@H](c2ccccc2)Nc2c(C(=O)N3CC4C[C@]4(c4ccc(C(F)(F)F)cc4)C3)cnn21` (stereo partly drawn) [Example 8, ((5R)-7,7-Dimethyl-5-phenyl-4,5,6,7-tetrahydropyrazolo[1,5-a]pyrimidin-3-yl)(1-(4-(trifluoromethyl)phenyl)-3-azabicyclo[3.1.0]hex-3-yl)methanone] showed an inhibition at 3.3 µM of 92%. In the case of `CC1(C)C[C@H](c2ccccc2)Nc2c(C(=O)N3CC4CC4(c4ccc(C(F)(F)F)c(Cl)c4)C3)cnn21` (stereo partly drawn) [Example 12, (1-(3-Chloro-4-(trifluoromethyl)phenyl)-3-azabicyclo[3.1.0]hex-3-yl)((5R)-7,7-dimethyl-5-phenyl-4,5,6,7-tetrahydropyrazolo[1,5-a]pyrimidin-3-yl)methanone], the inhibition at 3.3 µM is reported as 90%. For `CC1(C)C[C@H](c2ccccc2)Nc2c(C(=O)N3CC4CC4(c4cccc(Cl)c4)C3)cnn21` (stereo partly drawn) [Example 16, (1-(3-Chlorophenyl)-3-azabicyclo[3.1.0]hex-3-yl)((5R)-7,7-dimethyl-5-phenyl-4,5,6,7-tetrahydropyrazolo[1,5-a]pyrimidin-3-yl)methanone], the inhibition at 3.3 µM was 100%. In the case of `COc1cccc(C23CC2CN(C(=O)c2cnn4c2N[C@@H](c2ccccc2)CC4(C)C)C3)c1` (stereo partly drawn) [Example 19, ((5R)-7,7-Dimethyl-5-phenyl-4,5,6,7-tetrahydropyrazolo[1,5-a]pyrimidin-3-yl)(1-(3-methoxyphenyl)-3-azabicyclo[3.1.0]hex-3-yl)methanone], the inhibition at 3.3 µM is reported as 99%. In the case of `Cc1cccc(C23CC2CN(C(=O)c2cnn4c2N[C@@H](c2ccccc2)CC4(C)C)C3)c1` (stereo partly drawn) [Example 22, ((5R)-7,7-Dimethyl-5-phenyl-4,5,6,7-tetrahydropyrazolo[1,5-a]pyrimidin-3-yl)(1-(3-methylphenyl)-3-azabicyclo[3.1.0]hex-3-yl)methanone], the inhibition at 3.3 µM is reported as 101%. `CC1(C)C[C@H](c2ccccc2)Nc2c(C(=O)N3CC4CC4(c4cccc(C(F)(F)F)c4)C3)cnn21` (stereo partly drawn) [Example 25, ((5R)-7,7-Dimethyl-5-phenyl-4,5,6,7-tetrahydropyrazolo[1,5-a]pyrimidin-3-yl)(1-(3-(trifluoromethyl)phenyl)-3-azabicyclo[3.1.0]hex-3-yl)methanone] was tested, and the inhibition at 3.3 µM was 97%. `CC1(C)C[C@H](c2ccccc2)Nc2c(C(=O)N3CC4CC4(c4ccc(C(F)(F)F)cc4F)C3)cnn21` (stereo partly drawn) [Example 27, ((5R)-7,7-Dimethyl-5-phenyl-4,5,6,7-tetrahydropyrazolo[1,5-a]pyrimidin-3-yl)(1-(2-fluoro-4-(trifluoromethyl)phenyl)-3-azabicyclo[3.1.0]hex-3-yl)methanone] gave an inhibition at 3.3 µM of 111%. With `CC1(C)C[C@H](c2ccccc2)Nc2c(C(=O)N3CC4CC4(c4ccncc4)C3)cnn21` (stereo partly drawn) [Example 45] the inhibition at 3.3 µM was 96%. For `CC1(C)C[C@H](c2ccccc2)Nc2c(C(=O)N3CC4CC4(c4ccsc4)C3)cnn21` (stereo partly drawn) [Example 46, ((5R)-7,7-Dimethyl-5-phenyl-4,5,6,7-tetrahydropyrazolo[1,5-a]pyrimidin-3-yl)(1-(3-thienyl)-3-azabicyclo[3.1.0]hex-3-yl)methanone], the inhibition at 3.3 µM was 99%. `CC1(C)C[C@H](c2ccccc2)Nc2c(C(=O)N3C[C@@H]4C[C@]4(C(F)F)C3)cnn21` [Example 47] was tested, and the inhibition at 3.3 µM was 96%. With `Cc1ccc(C23CN(C(=O)c4cnn5c4N[C@@H](c4ccccc4)CC5(C)C)CC2C3(F)F)cc1` (stereo partly drawn) [Example 48, (6,6-Difluoro-1-(4-methylphenyl)-3-azabicyclo[3.1.0]hex-3-yl)((5R)-7,7-dimethyl-5-phenyl-4,5,6,7-tetrahydropyrazolo[1,5-a]pyrimidin-3-yl)methanone] the inhibition at 3.3 µM was 117%. Work on `Cc1cccc(C23CN(C(=O)c4cnn5c4N[C@@H](c4ccccc4)CC5(C)C)CC2C3(F)F)c1` (stereo partly drawn) [Example 49, (6,6-Difluoro-1-(3-methylphenyl)-3-azabicyclo[3.1.0]hex-3-yl)((5R)-7,7-dimethyl-5-phenyl-4,5,6,7-tetrahydropyrazolo[1,5-a]pyrimidin-3-yl)methanone] yielded an inhibition at 3.3 µM of 136%. `COc1ccc(C23CN(C(=O)c4cnn5c4N[C@@H](c4ccccc4)CC5(C)C)CC2C3(F)F)cc1` (stereo partly drawn) [Example 50, (6.6-Difluoro-1-(4-methoxyphenyl)-3-azabicyclo[3.1.0]hex-3-yl)((5R)-7,7-dimethyl-5-phenyl-4,5,6,7-tetrahydropyrazolo[1,5-a]pyrimidin-3-yl)methanone] was tested, and the inhibition at 3.3 µM was 128%. With `COc1cccc(C23CN(C(=O)c4cnn5c4N[C@@H](c4ccccc4)CC5(C)C)CC2C3(F)F)c1` (stereo partly drawn) [Example 51, (6,6-Difluoro-1-(3-methoxyphenyl)-3-azabicyclo[3.1.0]hex-3-yl)((5R)-7,7-dimethyl-5-phenyl-4,5,6,7-tetrahydropyrazolo[1,5-a]pyrimidin-3-yl)methanone] the inhibition at 3.3 µM was 115%. `COc1ccccc1C12CN(C(=O)c3cnn4c3N[C@@H](c3ccccc3)CC4(C)C)CC1C2(F)F` (stereo partly drawn) [Example 52, (6,6-Difluoro-1-(2-methoxyphenyl)-3-azabicyclo[3.1 0]hex-3-yl)((5R)-7,7-dimethyl-5-phenyl-4.5,5,7-tetrahydropyrazolo[1,5-a]pyrimidin-3-yl)methanone] showed an inhibition at 3.3 µM of 111%.
